Laboratory results reported in patent US20220306989A1, “CELL THERAPY METHODS” (Universität Basel, priority 2019, published 2022).
Numbered stars: 1 amine (or outer) side, 2 acyl side, 3 side chain; on linkers, the order of the positions; unused ones are H or OH. Bridge positions count the residues as written; N and C are the ends. Square brackets hold non-standard residues; d marks the D form. Peptide text beside a SMILES is read from it. I, II: the chains in the order shown. Actinocin(9to1) = Cc1c2oc3c(C)ccc(C(=O)[*:1])c3nc-2c(C(=O)[*:2])c(N)c1=O; NMeV = CN[C@H](C(=O)O)C(C)C; Sar = CNCC(=O)O

Experiments:
NV and CE NK cells [1] = test: IFN-γ measurement in human NK cells (bead-based immunoassay of supernatants); assay type: cell-based; conditions: IL-12/IL-18 stimulation 6 hours, 2-DG 10 mM pre-incubated 30 min
Procedure: (§1) Blood samples were obtained from healthy donors after written informed consent. Peripheral blood mononuclear cells were isolated by standard density-gradient centrifugation protocols (Lymphoprep; Fresenius Kabi). NK cells were negatively selected using EasySep negative NK cell isolation kit (Stemcell). Human NK cells were maintained in RPMI-1640 medium (Invitrogen) supplemented with 10% heat-inactivated human AB serum, 50 U/ml penicillin (Invitrogen) and 50 μg/ml streptomycin (Invitrogen) (R10AB). To generate CE NK cells, isolated NK cells were primed in R10AB containing IL-12 (10 ng/ml, R&D systems), IL-15 (1 ng/ml, PeproTech) and IL-18 (50 ng/ml, R&D systems) over-night. The next day cells were washed twice with PBS and maintained in R10AB containing IL-15 (1 ng/ml) until stimulation. Every 2-3 days 50% of the medium was replaced with fresh IL-IS (1 ng/ml). After 7 days cells were stimulated in R10AB containing IL-12 (10 ng/ml), IL-15 (1 ng/ml) and IL-18 (50 ng/ml) or with K562 leukemia targets (effector: target ratio, 5:1) for 6 hours. […]
NK cells were seeded in U-bottom 96 well plates (2×10^5 cells/well) using R10AB. […] Cell supernatants were harvested after stimulation and IFN-γ was measured using a human Th1 cytokine bead-based immunoassay (Legendplex, Biolegend) according to manufacturer's protocol.

NV and CE NK cells [2] = test: Quantitative real-time PCR of IFNG and TFRC mRNA in NK cells; assay type: cell-based, human
Procedure: as §1, with “ng/ml).” for “ng/ml). After 7 days cells were stimulated in R10AB containing IL-12 (10 ng/ml), IL-15 (1 ng/ml) and IL-18 (50 ng/ml) or with K562 leukemia targets (effector: target ratio, 5:1) for 6 hours.”
RNA was isolated from NK cells using Trizol (Thermo Fisher Scientific) and chloroform (Sigma-Aldrich) according to manufacturer's protocol, then purified with RNeasy RNA purification mini kit (QIAGEN, Germany). RNA concentration was determined using the NanoDrop 2000C (Thermo Fisher Scientific). […] Quantitative PCR for IFNG, TFRC and 18S mRNA was done in triplicate using commercially designed primers from Life Technologies (Hs00989291_m1, Hs00951083_m1, Hs03003631_g1). […]

NV and CE NK cells [3] = test: Flow cytometry of surface CD71 / CD69 on human NK cells; assay type: cell-based
Procedure: as §1
For surface staining NK cells were stained for 30 min at 4° C. with saturating concentrations of antibodies. […] Data were analyzed with Flowjo®_V10.5 (Tree Star, USA).

NV and CE NK cells [4] = test: Transferrin uptake assay (Tf-488); assay type: cell-based, human; conditions: IL-12/IL-18 + 2-DG treated NK cells
Procedure: as §1
NK cells were seeded in U-bottom 96-well plates (2×10^5 cells/well). […] Cells were resuspended in FACS buffer and analyzed by flow cytometry. […] Data were analyzed with Flowjo®_V10.5 (Tree Star, USA).

NV and CE NK cells [5] = assay type: cell-based
Procedure: (§2) Blood samples were obtained from healthy donors after written informed consent. Peripheral blood mononuclear cells were isolated by standard density-gradient centrifugation protocols (Lymphoprep; Fresenius Kabi). NK cells were negatively selected using EasySep negative NK cell isolation kit (Stemcell). Human NK cells were maintained in RPMI-1640 medium (Invitrogen) supplemented with 10% heat-inactivated human AB serum, 50 U/ml penicillin (Invitrogen) and 50 μg/ml streptomycin (Invitrogen) (R10AB). To generate CE NK cells, isolated NK cells were primed in R10AB containing IL-12 (10 ng/ml, R&D systems), IL-15 (1 ng/ml, PeproTech) and IL-18 (50 ng/ml, R&D systems) over-night. The next day cells were washed twice with PBS and maintained in R10AB containing IL-15 (1 ng/ml) until stimulation. Every 2-3 days 50% of the medium was replaced with fresh IL-IS (1 ng/ml). After 7 days cells were stimulated in R10AB containing IL-12 (10 ng/ml), IL-15 (1 ng/ml) and IL-18 (50 ng/ml) or with K562 leukemia targets (effector: target ratio, 5:1) for 6 hours. When indicated, cells were pre-incubated with 2-deoxy-D-glucose (10 mM, Sigma-Aldrich), Actinomycin D (1 and 10 μM, Sigma-Aldrich), Cycloheximide (10 and 100 μg/ml, Sigma-Aldrich), 2,2′-Bipyridyl (1, 10, 50 and 100 μM, Sigma-Aldrich) or 6-aminonicotinamide (50 μM, Sigma-Aldrich) for 30 min and then stimulated in R10AB containing IL-12 (10 ng/ml), IL-1S (1 ng/ml) and IL-18 (50 ng/ml) for 6 hours.
For cell proliferation assays, NK cells were loaded prior to activation with the cell-proliferation dye CFSE (1 μM, Molecular probes, USA) and seeded in 96-well plates. Cells were washed twice and maintained in R10AB with IL-15 (1 ng/ml), when indicated in the presence of inhibitors. A fixable live-dead cell stain (Fixable Viability Dye, eBioscience or Zombie Aqua, Biolegend) was used to exclude dead cells prior to sample acquisition. CFSE dilution was analyzed 65 hours post-stimulation by flow cytometry. Samples were acquired using a BD AccuriC6 or a CytoFLEX flow cytometer (Beckman Coulter). Data were analyzed with Flowjo®_V 10.5 (Tree Star, USA).

NV and CE NK cells [6] = test: Immunoblot of total CD71, IRP1, IRP2 in human NK cells; assay type: cell-based; conditions: IL-12/IL-18 + ActD 1 and 10 μM or CHX 10 and 100 μg/ml
Procedure: as §2
Protein concentrations were determined by BCA protein assay kit (Thermo Fisher Scientific). Total cell lysates were separated using 4%-15% Mini Protean TGX Gel (Bio-Rad, Hercules Calif., USA), and transferred to nitrocellulose membranes using Trans-Blot Turbo Transfer (Bio-Rad, Hercules Calif., USA). […] Blots were stained with appropriate secondary antibodies and the odyssey imaging system (LICOR, Lincoln Nebr., USA) was used for visualization, and the ImageJ software (1.48v) for quantification.

O=CC[C@@H](O)[C@H](O)[C@H](O)CO [2-DG, 2-deoxy-d-glucose]
IFN-γ secretion (NV and CE NK cells [1]): similarly reduced | TFRC mRNA abundance (NV and CE NK cells [2]; IL-12/IL-18 + 2-DG): similarly reduced | IFNG mRNA abundance (NV and CE NK cells [2]; IL-12/IL-18 stimulation 6 hours, 2-DG 10 mM pre-incubated 30 min): similarly reduced | Cell surface expression of CD71 (NV and CE NK cells [3]; IL-12/IL-18 + 2-DG, NV and CE NK cells): followed the same pattern | transferrin uptake (Tf-488) (NV and CE NK cells [4]): reduced transferrin uptake

NC(=O)c1ccc(N)nc1 [6AN, 6-aminonicotinamide]
expansion / proliferation of cytokine-stimulated NK cells (CFSE dilution) (NV and CE NK cells [5]; IL-12/IL-18 + 6AN 50 μM, NV and CE NK cells): prevented expansion of cytokine-stimulated NK cells

Cc1c2oc3c(C)ccc(C(=O)N[C@@H]4C(=O)N[C@H](C(C)C)C(=O)N5CCC[C@H]5C(=O)N(C)CC(=O)N(C)[C@@H](C(C)C)C(=O)O[C@@H]4C)c3nc-2c(C(=O)N[C@@H]2C(=O)N[C@H](C(C)C)C(=O)N3CCC[C@H]3C(=O)N(C)CC(=O)N(C)[C@@H](C(C)C)C(=O)O[C@@H]2C)c(N)c1=O [Actinomcyin D, Actinomycin D] (I: T[dV]P[Sar][NMeV] / II: T[dV]P[Sar][NMeV]; ester I:1-I:C, II:1-II:C; linker I:N-II:N via Actinocin(9to1))
stimulation-induced upregulation of CD71 (total CD71, Western blot) (NV and CE NK cells [6]): entirely prevented stimulation-induced upregulation of CD71 | stimulation-induced upregulation of CD71 (total CD71, Western blot) (NV and CE NK cells [6]; listed as actinomycin): prevented stimulation-induced upregulation of CD71

c1ccc(-c2ccccn2)nc1 [BIP, 2,2′-bipyridyl]
cell viability (NV and CE NK cells [5]): minimal effects on cell viability | NK cell proliferation (CFSE dilution) (NV and CE NK cells [5]; IL-12/IL-18 + BIP 1, 10 and 50 μM, NV and CE NK cells, 65 hours post-stimulation): inhibited NK cell proliferation in a dose-dependent manner | NK cell activation as assessed by CD69 expression (NV and CE NK cells [3]; IL-12/IL-18 + BIP 100 μM): no effect on NK cell activation

C[C@@H]1C[C@@H]([C@H](O)CC2CC(=O)NC(=O)C2)C(=O)[C@@H](C)C1 [cycloheximide]
stimulation-induced upregulation of CD71 (total CD71, Western blot) (NV and CE NK cells [6]): entirely prevented stimulation-induced upregulation of CD71
